Measurements: patent US11472808B2, “Substituted pyrrolo[1,2-c]pyrimidines as hepatitis B antiviral agents” (Enanta Pharmaceuticals, Inc., priority 2019, dated 2022)

Legend:
HBV = experiment: HepAD38 anti-HBV assay: reduction of viral product accumulation (virion DNA qPCR, HBsAg/HBeAg ELISA); type: cell-based; settings: Hepatitis B virus, 120 h; HepAD38 cells; concentration reducing viral product accumulation by 50% relative to no drug controls; harvest five days after compound addition; read-out: HepAD38 EC50
Summary of the method: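 EC50 values reflect 50% reduction, relative to untreated controls, in virion DNA (qPCR) or HBsAg/HBeAg (ELISA) from lysates or supernatants. Washed HepAD38 cells without tetracycline were exposed to compound for 5 days. In the 8-day variant, medium and compound were renewed on days 2 and 5.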

[1] = Compound toxicity, ATPLite total ATP levels; type: cell-based; settings: human, HepG2 cells; concentration reducing total ATP levels by 50% relative to no drug controls; ATPLite three days after compound addition
Protocol: Compound toxicity is evaluated by seeding cells at 15,000 cells/well and treating with compound as described above.

Row | Structure (SMILES) | EC50 (HBV) [µM] | CC50 at 3 days [1] [µM]
1 | CC(C)[C@H](NS(=O)(=O)N[C@H]1CC2=C(c3ccn(C(F)F)n3)[C@H](c3ccc(F)cc3Cl)N=C(c3nccs3)N2C1)c1ccccn1 [Example 342] | < 0.1 | > 25
2 | O=S(=O)(CCl)N[C@H]1CC2=C(c3ccn(C(F)F)n3)[C@H](c3ccc(F)cc3Cl)N=C(c3nccs3)N2C1 [Example 70] | < 0.1 | > 25
3 | O=S(=O)(N[C@H]1CC2=C(c3ccn(C(F)F)n3)[C@H](c3ccc(F)cc3Cl)N=C(c3nccs3)N2C1)c1cccc(-c2cccnc2)n1 [Example 378] | < 0.1 | > 25
4 | O=S(=O)(N[C@H]1CC2=C(c3ccn(C(F)F)n3)[C@H](c3ccc(F)cc3Cl)N=C(c3nccs3)N2C1)c1ccc(-c2cccnc2)cn1 [Example 403] | < 0.1 | > 25
5 | CN(CCO)S(=O)(=O)N[C@H]1CC2=C(c3ccn(C(F)F)n3)[C@H](c3ccc(F)cc3Cl)N=C(c3nccs3)N2C1 [Example 81] | < 0.1 | > 25
6 | O=S(=O)(N[C@H]1CC2=C(c3ccn(C(F)F)n3)[C@H](c3ccc(F)cc3Cl)N=C(c3nccs3)N2C1)N1CCC(O)(c2cccnc2)CC1 [Example 264] | < 0.1 | > 25
7 | O=S(=O)(N[C@H]1CC2=C(c3ccn(C(F)F)n3)[C@H](c3ccc(F)cc3Cl)N=C(c3nccs3)N2C1)N1CC2CC2C1 (stereo partly shown) [Example 273] | < 0.1 | < 10
8 | CC1(O)CCN(S(=O)(=O)N[C@H]2CC3=C(c4ccn(C(F)F)n4)[C@H](c4ccc(F)cc4Cl)N=C(c4nccs4)N3C2)C1 (stereo partly shown) [Example 282] | < 0.1 | > 25
9 | CS(=O)(=O)CS(=O)(=O)N[C@H]1CC2=C(c3ccn(C(F)F)n3)[C@H](c3ccc(F)cc3Cl)N=C(c3nccs3)N2C1 [Example 335] | < 0.1 | > 25
10 | O=S(=O)(N[C@H]1CC2=C(c3ccn(C(F)F)n3)[C@H](c3ccc(F)cc3Cl)N=C(c3nccs3)N2C1)N1CCCC1 [Example 271] | < 0.1 | 10 to 25
11 | O=C(N[C@H]1CC2=C(c3ccn(C(F)F)n3)[C@H](c3ccc(F)cc3Cl)N=C(c3nccs3)N2C1)c1nccs1 [Example 235] | < 0.1 | > 25
12 | O=C1OCCN1C1CCN(S(=O)(=O)N[C@H]2CC3=C(c4ccn(C(F)F)n4)[C@H](c4ccc(F)cc4Cl)N=C(c4nccs4)N3C2)CC1 [Example 302] | < 0.1 | > 25
13 | O=S(=O)(NCCc1ccccn1)N[C@H]1CC2=C(c3ccn(C(F)F)n3)[C@H](c3ccc(F)cc3Cl)N=C(c3nccs3)N2C1 [Example 309] | < 0.1 | > 25
14 | O=S(=O)(N[C@H]1CC2=C(c3ccn(C(F)F)n3)[C@H](c3ccc(F)cc3Cl)N=C(c3nccs3)N2C1)C1CCC1 [Example 324] | < 0.1 | 10 to 25
15 | O=S(=O)(N[C@H]1CC2=C(c3ccn(C(F)F)n3)[C@H](c3ccc(F)cc3Cl)N=C(c3nccs3)N2C1)N1CCCCC1 [Example 73] | < 0.1 | 10 to 25
16 | Cc1ccc(S(=O)(=O)N[C@H]2CC3=C(c4ccn(C(F)F)n4)[C@H](c4ccc(F)cc4Cl)N=C(c4nccs4)N3C2)cn1 [Example 401] | < 0.1 | > 25
17 | Cn1ccc(S(=O)(=O)N[C@H]2CC3=C(c4ccn(C(F)F)n4)[C@H](c4ccc(F)cc4Cl)N=C(c4nccs4)N3C2)n1 [Example 394] | < 0.1 | > 25
18 | N#CCCCS(=O)(=O)N[C@H]1CC2=C(c3ccn(C(F)F)n3)[C@H](c3ccc(F)cc3Cl)N=C(c3nccs3)N2C1 [Example 135] | < 0.1 | > 25
19 | O=S(=O)(N[C@H]1CC2=C(c3ccn(C(F)F)n3)[C@H](c3ccc(F)cc3Cl)N=C(c3nccs3)N2C1)N1CCC(O)(C2CC2)CC1 [Example 270] | < 0.1 | < 10
20 | O=S(=O)(N[C@H]1CC2=C(c3ccn(C(F)F)n3)[C@H](c3ccc(F)cc3Cl)N=C(c3nccs3)N2C1)N1CCC(O)(c2ncco2)CC1 [Example 261] | < 0.1 | > 25
21 | O=S(=O)(N[C@H]1CC2=C(c3ccn(C(F)F)n3)[C@H](c3ccc(F)cc3Cl)N=C(c3nccs3)N2C1)N1CCC(O)(CO)CC1 [Example 89] | < 0.1 | > 25
22 | CS(=O)(=O)c1ccc(S(=O)(=O)N[C@H]2CC3=C(c4ccn(C(F)F)n4)[C@H](c4ccc(F)cc4Cl)N=C(c4nccs4)N3C2)cc1 [Example 323] | < 0.1 | 10 to 25
23 | O=C1NC[C@@H](CNC(=O)c2cccc(S(=O)(=O)N[C@H]3CC4=C(c5ccn(C(F)F)n5)[C@H](c5ccc(F)cc5Cl)N=C(c5nccs5)N4C3)c2)O1 [Example 420] | < 0.1 | > 25
24 | O=S(=O)(N[C@H]1CC2=C(c3ccn(C(F)F)n3)[C@H](c3ccc(F)cc3Cl)N=C(c3nccs3)N2C1)C1(C[C@@H](O)CO)CC1 [Example 424] | < 0.1 | > 25

Row | Structure (SMILES) | EC50 (HBV) [µM] | CC50 at 3 days [1] [µM]
25 | O=S(=O)(NCCO)N[C@H]1CC2=C(c3ccn(C(F)F)n3)[C@H](c3ccc(F)cc3Cl)N=C(c3nccs3)N2C1 [Example 78] | < 0.1 | > 25
26 | CS(=O)(=O)N1CCN(S(=O)(=O)N[C@H]2CC3=C(c4ccn(C(F)F)n4)[C@H](c4ccc(F)cc4Cl)N=C(c4nccs4)N3C2)CC1 [Example 151] | < 0.1 | > 25
27 | O=S(=O)(N[C@H]1CC2=C(c3ccn(C(F)F)n3)[C@H](c3ccc(F)cc3Cl)N=C(c3nccs3)N2C1)N1CCCCC12CCC2 [Example 285] | < 0.1 | > 25
28 | O=S(=O)(N[C@H]1CC2=C(c3ccn(C(F)F)n3)[C@H](c3ccc(F)cc3Cl)N=C(c3nccs3)N2C1)[C@H]1CC[C@](O)(CO)CC1 [Example 100] | < 0.1 | > 25
29 | O=S(=O)(N[C@H]1CC2=C(c3ccn(C(F)F)n3)[C@H](c3ccc(F)cc3Cl)N=C(c3nccs3)N2C1)c1ncc[nH]1 [Example 362] | < 0.1 | > 25
30 | O=S(=O)(N[C@H]1CC2=C(c3ccn(C(F)F)n3)[C@H](c3ccc(F)cc3Cl)N=C(c3nccs3)N2C1)N1CCC(O)(c2ccncc2)CC1 [Example 259] | < 0.1 | > 25
31 | O=S(=O)(N[C@H]1CC2=C(c3ccn(C(F)F)n3)[C@H](c3ccc(F)cc3Cl)N=C(c3nccs3)N2C1)c1ccc(C(O)c2ccccn2)cc1 (stereo partly shown) [Example 334] | < 0.1 | < 10
32 | C[C@]1(O)CC[C@@H](c2ccc(S(=O)(=O)N[C@H]3CC4=C(c5ccn(C(F)F)n5)[C@H](c5ccc(F)cc5Cl)N=C(c5nccs5)N4C3)cc2)CC1 [Example 410] | < 0.1 | > 25
33 | N#CCC1(O)CC2=C(c3ccn(C(F)F)n3)[C@H](c3ccc(F)cc3Cl)N=C(c3nccs3)N2C1 (stereo partly shown) [Example 140] | < 0.1 | > 25
34 | COCCNS(=O)(=O)N[C@H]1CC2=C(c3ccn(C(F)F)n3)[C@H](c3ccc(F)cc3Cl)N=C(c3nccs3)N2C1 [Example 80] | < 0.1 | > 25
35 | O=S(=O)(N[C@H]1CC2=C(c3ccn(C(F)F)n3)[C@H](c3ccc(F)cc3Cl)N=C(c3nccs3)N2C1)N1CC[C@H](O)C1 [Example 91] | < 0.1 | > 25
36 | C[C@]1(NS(=O)(=O)C2CCC(O)(c3ccccn3)CC2)CC2=C(c3ccn(C(F)F)n3)[C@H](c3ccc(F)cc3Cl)N=C(c3nccs3)N2C1 (stereo partly shown) [Example 363] | < 0.1 | 10 to 25
37 | O=C(O)[C@H]1CC[C@H](c2ccc(S(=O)(=O)N[C@H]3CC4=C(c5ccn(C(F)F)n5)[C@H](c5ccc(F)cc5Cl)N=C(c5nccs5)N4C3)cc2)CC1 [Example 426] | < 0.1 | > 25
38 | O=S(=O)(N[C@H]1CC2=C(c3ccn(C(F)F)n3)[C@H](c3ccc(F)cc3Cl)N=C(c3nccs3)N2C1)N1CC[C@@H](O)C1 [Example 92] | < 0.1 | > 25
39 | O=S(=O)(N[C@H]1CC2=C(c3ccn(C(F)F)n3)[C@H](c3ccc(F)cc3Cl)N=C(c3nccs3)N2C1)N1CCC[C@H](O)C1 [Example 93] | < 0.1 | > 25
40 | O=S(=O)(N[C@H]1CC2=C(c3ccn(C(F)F)n3)[C@H](c3ccc(F)cc3Cl)N=C(c3nccs3)N2C1)c1ccc(Br)cn1 [Example 368] | < 0.1 | > 25
41 | O=C1NCCN1C1CCN(S(=O)(=O)N[C@H]2CC3=C(c4ccn(C(F)F)n4)[C@H](c4ccc(F)cc4Cl)N=C(c4nccs4)N3C2)CC1 [Example 294] | < 0.1 | > 25
42 | O=S1(=O)CCN(S(=O)(=O)N[C@H]2CC3=C(c4ccn(C(F)F)n4)[C@H](c4ccc(F)cc4Cl)N=C(c4nccs4)N3C2)CC1 [Example 150] | < 0.1 | > 25
43 | O=S(=O)(N[C@H]1CC2=C(c3ccn(C(F)F)n3)[C@H](c3ccc(F)cc3Cl)N=C(c3nccs3)N2C1)C1(CCO)CC1 [Example 379] | < 0.1 | 10 to 25
44 | O=S(=O)(N[C@H]1CC2=C(c3ccn(C(F)F)n3)[C@H](c3ccc(F)cc3Cl)N=C(c3nccs3)N2C1)N1C[C@H](F)[C@@H](F)C1 [Example 275] | < 0.1 | 10 to 25
45 | O=S(=O)(N[C@H]1CC2=C(c3ccn(C(F)F)n3)[C@H](c3ccc(F)cc3Cl)N=C(c3nccs3)N2C1)c1cn[nH]c1 [Example 20] | < 0.1 | > 25
46 | O=S(=O)(N[C@H]1CC2=C(c3ccn(C(F)F)n3)[C@H](c3ccc(F)cc3Cl)N=C(c3nccs3)N2C1)[C@H]1C[C@](O)(c2ccccn2)C1 [Example 371] | < 0.1 | 10 to 25
47 | O=S(=O)(N[C@H]1CC2=C(c3ccn(C(F)F)n3)[C@H](c3ccc(F)cc3Cl)N=C(c3nccs3)N2C1)c1ccccc1 [Example 367] | < 0.1 | > 25
